In ChEMBL document CHEMBL1201862, “PubChem BioAssay data set” (2004):
Active and inactive are the calls of the source.

Experiments:
[1] = target: T1, Calpain-2 catalytic subunit (Sus scrofa, UniProt P43367); test: m-calpain protease blockers, concentration series – biochemical, fluorogenic peptide substrate, dose response (AID 1420); format: functional
T1 sequence (P43367 whole entry): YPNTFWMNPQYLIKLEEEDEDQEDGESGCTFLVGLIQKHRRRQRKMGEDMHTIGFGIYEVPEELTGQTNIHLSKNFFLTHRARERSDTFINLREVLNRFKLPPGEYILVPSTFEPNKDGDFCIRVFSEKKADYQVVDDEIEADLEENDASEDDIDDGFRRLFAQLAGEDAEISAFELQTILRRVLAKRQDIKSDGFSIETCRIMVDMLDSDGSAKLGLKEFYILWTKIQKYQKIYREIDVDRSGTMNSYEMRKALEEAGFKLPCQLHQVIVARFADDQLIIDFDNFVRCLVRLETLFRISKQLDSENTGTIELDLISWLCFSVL

[2] = NIH-3T3 fibroblast cytotoxicity, dose response, cytotoxicity control, cell-based, fluorescence, Alamar Blue, secondary assay (AID 2327); format: functional;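 also: NIH-3T3 mouse fibroblasts cultured with fluconazole at 8 µg/mL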
[3] = fluconazole-exposed Candida albicans growth modulators – fluorescence, retest, confirmation (AID 2467); format: functional, cell-based
INS1 = test: INS-1E survival protection against cytokine death – cell-based, luminescence, retest, dose response (AID 449756); format: functional; conditions: Rattus norvegicus;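 also: cell death triggered by IL-1 beta plus TNF-alpha plus IFN-gamma mixture; protective hits raise ATP signal compared with cytokine alone wells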
[4] = P. falciparum Dd2 growth inhibitors, dose response, SYBR Green, cherry-picked samples (AID 1159567); format: functional, cell-based
[5] = test system: Streptococcus sp. 'group A'; test: Streptococcus pyogenes SK(-)GAS viability under kanamycin – luminescence, BacTiterGlo, confirmation, counter-screen for streptokinase expression inhibitor project, dose response (AID 1900); format: functional, organism-based
Streptokinase A = target: T2, Streptokinase A (Streptococcus pyogenes serotype M1, UniProt P10520); test: viability-normalized secreted streptokinase activity reduction – plasminogen activation absorbance, OD405, dose response (AID 1914); format: functional, Streptococcus pyogenes M1 GAS;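 also: secreted streptokinase activity via plasminogen activation per viability signal from cell pellet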
T2 sequence (P10520 whole entry): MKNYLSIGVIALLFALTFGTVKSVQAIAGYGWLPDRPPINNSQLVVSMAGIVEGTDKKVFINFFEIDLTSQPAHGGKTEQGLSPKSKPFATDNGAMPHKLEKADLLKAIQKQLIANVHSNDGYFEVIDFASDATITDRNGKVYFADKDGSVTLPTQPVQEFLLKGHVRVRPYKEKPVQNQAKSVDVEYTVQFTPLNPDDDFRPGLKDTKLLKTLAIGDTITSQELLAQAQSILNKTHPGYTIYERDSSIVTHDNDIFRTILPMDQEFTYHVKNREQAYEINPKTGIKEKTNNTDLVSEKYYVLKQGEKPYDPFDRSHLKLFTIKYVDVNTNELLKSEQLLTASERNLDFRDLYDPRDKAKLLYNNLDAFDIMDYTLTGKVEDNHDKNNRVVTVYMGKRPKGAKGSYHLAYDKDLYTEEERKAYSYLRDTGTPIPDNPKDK

[6] = target: Luciferin 4-monooxygenase (Photinus pyralis, UniProt P08659); test: inhibition of purified Photinus pyralis luciferase – biochemical, luminescence, dose response (AID 1891)
Sequence of Luciferin 4-monooxygenase (P08659 whole entry): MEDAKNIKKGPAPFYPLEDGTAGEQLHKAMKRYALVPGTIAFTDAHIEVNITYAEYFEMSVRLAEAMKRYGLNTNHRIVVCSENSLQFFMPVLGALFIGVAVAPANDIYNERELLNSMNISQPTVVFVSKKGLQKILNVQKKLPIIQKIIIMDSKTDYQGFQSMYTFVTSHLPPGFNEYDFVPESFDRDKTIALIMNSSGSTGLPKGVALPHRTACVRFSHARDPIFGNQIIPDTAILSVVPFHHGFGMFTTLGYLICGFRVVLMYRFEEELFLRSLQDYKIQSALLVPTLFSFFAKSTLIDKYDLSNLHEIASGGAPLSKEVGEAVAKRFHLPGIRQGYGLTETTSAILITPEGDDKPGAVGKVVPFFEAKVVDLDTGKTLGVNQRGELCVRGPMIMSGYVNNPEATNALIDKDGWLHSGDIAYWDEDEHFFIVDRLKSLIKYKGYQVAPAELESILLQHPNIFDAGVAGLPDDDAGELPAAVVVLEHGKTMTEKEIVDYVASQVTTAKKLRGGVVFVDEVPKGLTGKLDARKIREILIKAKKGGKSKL

[7] = Luminescence Cell-Based Dose Confirmation HTS to Identify Inhibitors of Platelet Dense Granule Release. [Related pubchem assays: 1663 (Primary HTS), 1678 (Summary of Project)]; format: functional
Streptococcus = test: GAS UMAA2166 growth inhibition – luminescence, BacTiterGlo, counter-screen for streptokinase expression inhibitor project, dose response (AID 1915); format: functional, organism-based;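 also: potency for reduction of bacterial viability or growth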
[8] = Luminescence Cell-Based Dose Retest to Confirm Inhibitors of Cancer Stem Cells. [Related pubchem assays (depositor defined):AID2717, AID2721]; format: functional; conditions: Homo sapiens
[9] = target: FAD-linked sulfhydryl oxidase ALR (Homo sapiens, UniProt P55789); test: ALR-catalysed DTT oxidation blockers – biochemical, H2O2 detection, luminescence, cherry-pick, dose response (AID 493248)
Sequence of FAD-linked sulfhydryl oxidase ALR (P55789 whole entry): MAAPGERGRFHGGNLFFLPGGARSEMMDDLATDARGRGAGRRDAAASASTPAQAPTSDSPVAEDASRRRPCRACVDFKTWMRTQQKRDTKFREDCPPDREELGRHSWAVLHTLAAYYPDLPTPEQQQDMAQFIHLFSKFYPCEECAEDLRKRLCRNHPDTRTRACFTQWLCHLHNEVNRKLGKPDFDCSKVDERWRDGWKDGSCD

Cytochrome P450 2D6 = Cytochrome P450 2D6 (Homo sapiens, UniProt P10635);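 also: CYP2D6 member of a cytochrome P450 panel assay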
Sequence of Cytochrome P450 2D6 (P10635 whole entry): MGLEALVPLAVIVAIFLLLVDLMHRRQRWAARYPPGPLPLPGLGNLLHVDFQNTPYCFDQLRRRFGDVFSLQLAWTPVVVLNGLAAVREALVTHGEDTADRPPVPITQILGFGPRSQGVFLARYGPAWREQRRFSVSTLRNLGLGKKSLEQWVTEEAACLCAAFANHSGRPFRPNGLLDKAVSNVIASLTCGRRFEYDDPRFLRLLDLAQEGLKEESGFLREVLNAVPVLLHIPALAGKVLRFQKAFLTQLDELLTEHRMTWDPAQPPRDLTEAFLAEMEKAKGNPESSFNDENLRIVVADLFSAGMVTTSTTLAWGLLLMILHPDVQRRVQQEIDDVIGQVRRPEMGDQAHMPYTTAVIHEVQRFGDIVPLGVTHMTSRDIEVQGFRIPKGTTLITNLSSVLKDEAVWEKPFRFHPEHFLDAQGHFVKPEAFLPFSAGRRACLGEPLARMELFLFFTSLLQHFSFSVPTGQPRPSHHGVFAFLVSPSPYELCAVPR

Cytochrome P450 1A2 = target: T3, Cytochrome P450 1A2 (Homo sapiens, UniProt P05177);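 also: PubChem cytochrome P450 panel assay, CYP1A2 panel member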
T3 sequence (P05177 whole entry): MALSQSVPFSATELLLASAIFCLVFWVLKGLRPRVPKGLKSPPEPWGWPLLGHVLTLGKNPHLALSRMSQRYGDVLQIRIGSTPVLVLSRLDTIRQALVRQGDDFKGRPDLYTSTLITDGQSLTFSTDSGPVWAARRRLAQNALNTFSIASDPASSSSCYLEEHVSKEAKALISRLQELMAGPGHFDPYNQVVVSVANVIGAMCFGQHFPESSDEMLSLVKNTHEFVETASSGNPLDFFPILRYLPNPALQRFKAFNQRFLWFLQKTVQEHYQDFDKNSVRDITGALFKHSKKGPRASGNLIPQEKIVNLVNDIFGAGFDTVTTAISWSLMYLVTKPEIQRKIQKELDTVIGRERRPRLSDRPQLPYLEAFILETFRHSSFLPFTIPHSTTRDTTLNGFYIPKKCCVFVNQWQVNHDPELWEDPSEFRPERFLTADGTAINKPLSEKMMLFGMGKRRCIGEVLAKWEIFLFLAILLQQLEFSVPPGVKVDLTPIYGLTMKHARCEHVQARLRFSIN

Cytochrome P450 2C9 = Cytochrome P450 2C9 (Homo sapiens, UniProt P11712)
Sequence of Cytochrome P450 2C9 (P11712 whole entry): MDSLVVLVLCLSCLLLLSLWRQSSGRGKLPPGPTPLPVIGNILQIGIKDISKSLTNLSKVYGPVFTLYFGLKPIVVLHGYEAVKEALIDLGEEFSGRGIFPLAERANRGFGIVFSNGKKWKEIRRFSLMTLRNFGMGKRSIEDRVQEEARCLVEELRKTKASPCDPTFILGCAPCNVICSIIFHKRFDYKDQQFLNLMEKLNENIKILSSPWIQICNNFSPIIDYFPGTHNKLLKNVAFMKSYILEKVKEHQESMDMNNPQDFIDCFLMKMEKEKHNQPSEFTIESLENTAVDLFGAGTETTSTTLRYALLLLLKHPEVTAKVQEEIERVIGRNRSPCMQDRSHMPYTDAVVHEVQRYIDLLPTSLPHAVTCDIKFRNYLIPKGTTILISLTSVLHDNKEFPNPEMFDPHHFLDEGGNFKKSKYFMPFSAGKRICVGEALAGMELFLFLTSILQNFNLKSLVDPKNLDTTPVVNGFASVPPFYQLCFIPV

Cytochrome P450 3A4 = Cytochrome P450 3A4 (Homo sapiens, UniProt P08684);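 also: CYP3A4 tested as one member of a cytochrome P450 panel screen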
Sequence of Cytochrome P450 3A4 (P08684 whole entry): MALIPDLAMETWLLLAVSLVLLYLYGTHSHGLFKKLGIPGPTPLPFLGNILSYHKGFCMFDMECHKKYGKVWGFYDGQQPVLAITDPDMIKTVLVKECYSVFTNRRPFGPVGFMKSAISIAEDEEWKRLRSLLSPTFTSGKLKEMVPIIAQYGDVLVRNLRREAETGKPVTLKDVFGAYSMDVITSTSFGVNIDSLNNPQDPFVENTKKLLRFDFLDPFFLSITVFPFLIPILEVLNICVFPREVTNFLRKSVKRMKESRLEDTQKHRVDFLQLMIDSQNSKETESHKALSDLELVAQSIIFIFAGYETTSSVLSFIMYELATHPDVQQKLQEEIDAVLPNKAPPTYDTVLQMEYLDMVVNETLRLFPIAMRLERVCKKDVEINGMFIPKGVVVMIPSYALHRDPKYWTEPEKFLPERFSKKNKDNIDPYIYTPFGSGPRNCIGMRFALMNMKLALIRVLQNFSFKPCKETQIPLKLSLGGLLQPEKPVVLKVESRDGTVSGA

Cytochrome P450 2C19 = Cytochrome P450 2C19 (Homo sapiens, UniProt P33261); test: Cytochrome panel assay with activity outcomes. Panel member name: p450-cyp2c19 Compounds with AC50 equal or less than 10 uM are considered active; format: functional; conditions: read-out: AC50
Sequence of Cytochrome P450 2C19 (P33261 whole entry): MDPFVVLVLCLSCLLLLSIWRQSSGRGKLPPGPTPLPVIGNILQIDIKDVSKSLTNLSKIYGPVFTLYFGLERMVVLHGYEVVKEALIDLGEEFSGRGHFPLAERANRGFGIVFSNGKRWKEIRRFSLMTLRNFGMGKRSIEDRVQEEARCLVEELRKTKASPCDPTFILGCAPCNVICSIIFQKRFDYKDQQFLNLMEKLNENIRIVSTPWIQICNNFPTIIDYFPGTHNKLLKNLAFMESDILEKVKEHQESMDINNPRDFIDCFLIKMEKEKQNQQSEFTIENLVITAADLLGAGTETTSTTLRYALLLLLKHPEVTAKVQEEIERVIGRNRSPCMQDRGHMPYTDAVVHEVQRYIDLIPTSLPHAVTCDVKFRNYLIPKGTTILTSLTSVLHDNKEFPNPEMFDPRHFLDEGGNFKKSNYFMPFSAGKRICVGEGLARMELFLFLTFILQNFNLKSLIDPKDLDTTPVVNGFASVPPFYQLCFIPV

[10] = reduction of Shn3 3'UTR-driven luciferase in osteoblasts – cell-based, Clone20 osteoblasts, firefly luciferase, cherry-picked, dose response (AID 624132); format: functional;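 also: firefly luciferase luminescence from reporter carrying the Shn3 3'UTR in osteoblasts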

Structure (SMILES): Cc1nc(Nc2ccccc2)sc1C(=O)c1ccccc1
- IC50 [1]: 3.41 µM (not active)

Structure (SMILES): O=C(Oc1c(CN2CCOCC2)cc(Cl)c2cccnc12)c1ccccc1
- EC50 [2]: > 150 µM (inactive)
- EC50 [3]: 3.71 µM (active)
- AC50 (INS1): 4.16 µM (active)

Structure (SMILES): COc1ccc2c3c([nH]c2c1)[C@@H](CO)N(Cc1cccc(F)c1)CC31CCN(C(C)=O)CC1
- AC50 [4]: 5.78 µM (active)

Structure (SMILES): O=C(c1ccccc1)c1cc2ccc(O)cc2oc1=O
- EC50 [5]: 8.12 µM (active)
- EC50 (Streptokinase A): > 150 µM (not active)
- EC50 [6]: 1.14 µM (active)
- EC50 [7]: < 0.701 µM (active)
- EC50 (Streptococcus): 18.5 µM (active)

Structure (SMILES): CCCCC(CC)C(=O)Oc1ccc(O)c(C(C)(C)C)c1 (configuration not stated)
- EC50 [5]: 3.2 µM (active)
- EC50 (Streptokinase A): 4.96 µM (active)
- IC50 [1]: 13.5 µM (not active)
- EC50 (Streptococcus): 7.84 µM (active)

Structure (SMILES): C[C@H](CO)N1C[C@H](C)[C@H](CN(C)S(=O)(=O)c2ccccc2F)OCc2ccccc2-c2c(n(C)c3ccccc23)C1=O
- AC50 [4]: 3.61 µM (active)

Structure (SMILES): NCC(c1ccc(Cl)cc1Cl)c1c[nH]c2ccccc12 (configuration not stated)
- EC50 [2]: 26.2 µM (active)
- EC50 [3]: > 38 µM (not active)
- AC50 [8]: 8.89 µM (active)

Structure (SMILES): O=C(N/N=C1/CC/C(=N/NC(=O)c2cccnc2)CC1)c1cccnc1
- AC50 [9]: 0.879 µM (active)

Structure (SMILES): CCc1c(C)c2cc(Cl)c(O)c(CN3CCCCC3)c2oc1=O
- AC50 [9]: 9.26 µM (active)

Structure (SMILES): COC(=O)N1CCN(C(=O)Cc2ccc(Cl)c(Cl)c2)[C@H](CN2CCCC2)C1
- AC50 (Cytochrome P450 2D6): 20 µM (inconclusive)

Structure (SMILES): Cc1ccc(Nc2nc(-c3sc(NC(=O)c4ccc([N+](=O)[O-])cc4)nc3C)cs2)cc1
- AC50 (Cytochrome P450 2D6): 0.01 µM (inconclusive)
- AC50 (Cytochrome P450 1A2): 2.24 µM (inconclusive)

Structure (SMILES): COc1ccc2[nH]cc(CCNc3ccnc(-c4ccc(C(=O)N(C)C)cc4)n3)c2c1
- AC50 (Cytochrome P450 2D6): 25.1 µM (inconclusive)

Structure (SMILES): Cc1cc(NC(=O)C2CCCN(S(=O)(=O)c3c[nH]cn3)C2)ccc1Br (configuration not stated)
- AC50 [9]: 69.2 µM (active)

Structure (SMILES): COc1ccc(N2CCN(C(=O)NCc3ccc(OC)c(OC)c3)CC2)cc1
- AC50 [9]: 5.76 µM (active)

Structure (SMILES): COc1ccc(CNc2nc(-c3ccc4c(c3)OCO4)nc3ccccc23)c(OC)c1
- AC50 (Cytochrome P450 2D6): 12.6 µM (inconclusive)
- AC50 (Cytochrome P450 2C9): 0.501 µM (inconclusive)

Structure (SMILES): c1csc(CN2CC[C@@]3(CCCNC3)C2)n1
- AC50 (Cytochrome P450 2D6): 12.6 µM (inconclusive)

Structure (SMILES): CC(=O)N/N=C/c1cc(C)n(-c2ccc(Br)cc2)c1C
- AC50 [9]: 0.414 µM (active)

Structure (SMILES): O=C(N/N=C\c1cccc(Br)c1)c1ccccc1-n1cccc1
- IC50 [1]: > 50 µM (not active)

Structure (SMILES): CC(C)c1cc(C(N)=O)c(NC(=O)C2CCC2)s1
- AC50 [9]: 9.12 µM (active)

Structure (SMILES): CN=C(S)NNC(=O)c1ccccc1F
- IC50 [1]: 17.7 µM (not active)

Structure (SMILES): CO[C@H]1CN(C)C(=O)c2ccc(NC(=O)Nc3cc(F)ccc3F)cc2OC[C@@H](C)N(C)C[C@H]1C
- AC50 [4]: 11.4 µM (active)

Structure (SMILES): CCN(CC)c1ccc(C2CC(=O)Nc3cc(OC)c(OC)cc32)cc1 (configuration not stated)
- AC50 [9]: 2.47 µM (active)

Structure (SMILES): CC(C)(C)OC(=O)NCCCC[C@H](NC(=O)c1nc[nH]c1C(=O)N[C@@H](CCCCNC(=O)OC(C)(C)C)C(=O)OC(C)(C)C)C(=O)OC(C)(C)C
- IC50 [1]: 3.89 µM (not active)

Structure (SMILES): CCCn1c(N)c(C(=O)COC(=O)c2c(C)noc2C)c(=O)n(C)c1=O
- EC50 [2]: > 150 µM (inactive)
- EC50 [3]: > 38 µM (not active)

Structure (SMILES): CCC(=O)N1CCc2cc(S(=O)(=O)NCCC(=O)N3CCN(c4cccc(C)c4)C(C)C3)ccc21 (configuration not stated)
- AC50 [9]: 72.4 µM (active)

Structure (SMILES): Cc1cc(C)c(C(=O)COC(=O)CCNS(=O)(=O)c2c(Cl)cccc2Cl)cc1C
- IC50 [1]: 4.97 µM (not active)

Structure (SMILES): COc1ccc(S(=O)(=O)N(C)C[C@H]2Oc3c(NC(=O)Nc4ccc5c(c4)OCO5)cccc3C(=O)N([C@@H](C)CO)C[C@H]2C)cc1
- AC50 [4]: 4.41 µM (active)

Structure (SMILES): COC(=O)c1c(C(=O)OC)c(-c2ccc(Cl)c(Cl)c2)n2c1CCC2
- EC50 [2]: > 160 µM (inactive)
- EC50 [3]: > 38 µM (not active)

Structure (SMILES): CCOC(=O)c1ccccc1NC(=O)c1cccc([N+](=O)[O-])c1
- EC50 [2]: > 150 µM (inactive)
- EC50 [3]: > 38 µM (not active)

Structure (SMILES): CCn1c(S)nnc1CN1C(=O)CSc2ccccc21
- AC50 [9]: 1.85 µM (active)

Structure (SMILES): C[C@H]1CN([C@@H](C)CO)S(=O)(=O)c2ccc(C#Cc3ccncc3)cc2O[C@H]1CN(C)S(=O)(=O)c1ccc(F)cc1
- AC50 [4]: 4.11 µM (active)

Structure (SMILES): Cn1c(N)c(C(=O)COC(=O)CCC2CCCCC2)c(=O)n(C)c1=O
- IC50 [1]: 5.23 µM (active)

Structure (SMILES): CN(C)c1ccc(-c2nc(NC3CCNCC3)c3ccccc3n2)cc1
- AC50 (Cytochrome P450 2D6): 39.8 µM (inconclusive)
- AC50 (Cytochrome P450 3A4): 31.6 µM (inconclusive)

Structure (SMILES): COc1cccc(N2CCN(Cc3cccnc3)CC2)c1
- AC50 [9]: 10.3 µM (active)

Structure (SMILES): Cc1cc(NC(=O)c2ccccc2Cl)no1
- EC50 [6]: > 112 µM (not active)
- EC50 [7]: > 112 µM (not active)
- AC50 (Cytochrome P450 2C19): 14.1 µM (inconclusive)
- AC50 (Cytochrome P450 1A2): 31.6 µM (inconclusive)

Structure (SMILES): O=C(NCc1cccnc1)C(=O)NCC(c1ccco1)N1CCN(c2ccc(F)cc2)CC1 (configuration not stated)
- AC50 [9]: 6.41 µM (active)

Structure (SMILES): CCN(CC)C(=S)Sc1c(O)nc2ccc(Cl)cc2c1-c1ccccc1
- EC50 [5]: 0.831 µM (active)
- EC50 (Streptococcus): 1.8 µM (active)
- AC50 [10]: 27 µM (active)

Structure (SMILES): O=C(NCC1CC1)Nc1cccs1
- AC50 [9]: 4.97 µM (active)

Structure (SMILES): CN(C)c1ccc(-c2nc(Nc3ccncc3)c3ccccc3n2)cc1
- AC50 (Cytochrome P450 2D6): 25.1 µM (inconclusive)
- AC50 (Cytochrome P450 2C9): 0.794 µM (inconclusive)

Structure (SMILES): COc1cc(N/C=C(\C(C)=O)c2ccccc2)cc(OC)c1
- IC50 [1]: > 50 µM (not active)

Structure (SMILES): Cc1c(C(=O)N2CCCC2)sc(NC(=O)c2cccc(Cl)c2)c1C#N
- EC50 [6]: > 112 µM (not active)
- EC50 [7]: > 112 µM (not active)

Structure (SMILES): O=C1CCC(c2ccccc2)=NN1c1nc2ccccc2s1
- AC50 (Cytochrome P450 2D6): 3.98 µM (inconclusive)
- AC50 (Cytochrome P450 2C9): 3.98 µM (inconclusive)
